The source made the active and inactive calls. No cut-off for these calls is given here.
How the values were obtained:
[1] = test system: Human immunodeficiency virus 1; experiment: Antiviral activity against HIV1 3B infected in human HeLa cells expressing CD4-LTR-beta-gal assessed as inhibition of viral replication after 3 days by reporter gene assay; type: functional, organism-based; settings: Human immunodeficiency virus 1, 3B, 72 h
[2] = target: T1, Human immunodeficiency virus type 1 integrase (Human immunodeficiency virus 1, UniProt Q7ZJM1); experiment: Inhibition of HIV1 integrase 3'-processing activity by gel-based assays
T1 sequence (Q7ZJM1 whole entry): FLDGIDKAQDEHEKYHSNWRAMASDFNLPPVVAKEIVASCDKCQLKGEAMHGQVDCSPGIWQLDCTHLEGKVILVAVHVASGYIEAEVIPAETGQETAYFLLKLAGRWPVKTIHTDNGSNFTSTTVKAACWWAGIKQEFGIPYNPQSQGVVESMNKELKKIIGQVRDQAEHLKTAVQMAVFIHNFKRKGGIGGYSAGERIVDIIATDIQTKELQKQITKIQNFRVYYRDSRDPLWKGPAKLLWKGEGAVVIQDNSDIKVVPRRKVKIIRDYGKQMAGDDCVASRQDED

[3] = target: T1, Human immunodeficiency virus type 1 integrase; experiment: Inhibition of HIV1 integrase strand transfer activity by gel-based assay
HeLa = experiment: Cytotoxicity against human HeLa cells expressing CD4-LTR-beta-gal after 24 hrs by ATPlite assay; type: cell-based
in vitro = settings: human, HeLa cells expressing CD4-LTR-beta-gal
Description: Selectivity index, ratio of CC50 for human HeLa cells expressing CD4-LTR-beta-gal to EC50 for HIV1 3B

[4] = target: Human immunodeficiency virus type 1 reverse transcriptase (Human immunodeficiency virus 1, UniProt Q72547); experiment: Inhibition of HIV1 RNase H function of recombinant reverse transcriptase using an 18-nt 3'-fluorescein-labeled RNA annealed to complementary 18-nt 5'-dabsyl-labeled DNA as substrate after 10 mins by fluorescence spectrometer analysis
[5] = target: Human immunodeficiency virus type 1 reverse transcriptase (Human immunodeficiency virus 1) (UniProt Q72547); experiment: Inhibition of HIV1 polymerase function of reverse transcriptase up to 40 uM

SMILES | EC50 [1] [µM] | IC50 [2] [µM] | IC50 [3] [µM] | CC50 (HeLa) [µM] | selectivity ratio (in vitro) | IC50 [4] [µM] | inhibition [5]
CN(C)c1ccc2c(=O)c(C(=O)/C=C(\O)C(=O)O)cn(Cc3ccc(F)cc3)c2c1 | > 50 |  |  |  |  |  | 
CCOC(=O)/C(O)=C/C(=O)c1cn(Cc2ccc(F)cc2)c2cc(N3CCN(C(C)=O)CC3)ccc2c1=O | > 50 | 17 | 0.17 |  |  |  | 
CCOC(=O)/C(O)=C/C(=O)c1cn(Cc2ccc(F)cc2)c2cc(N3CCNCC3)ccc2c1=O | 20.9 | > 333 | 24 | > 50 | > 2.4 |  | 
O=C(O)/C(O)=C/C(=O)c1cn(Cc2ccc(F)cc2)c2cc(N3CCSCC3)ccc2c1=O | > 50 | 30 | 0.36 |  |  |  | 
CCOC(=O)/C(O)=C/C(=O)c1cn(Cc2ccc(F)cc2)c2cc(N3CCN(CC)CC3)ccc2c1=O |  |  |  | > 50 |  |  | 
CCOC(=O)/C(O)=C/C(=O)c1cn(Cc2ccc(F)cc2)c2cc(N3CCOCC3)ccc2c1=O | 16.2 | > 111 | 2.1 | > 50 | > 3 |  | 
Cc1nnc(C(=O)NC(C)(C)c2nc(C(=O)NCc3ccc(F)cc3)c(O)c(=O)n2C)o1 |  |  |  | > 50 |  |  | 
CCOC(=O)/C(O)=C/C(=O)c1cn(Cc2ccc(F)cc2)c2cc(N3CCCC3)ccc2c1=O |  |  |  | > 50 |  |  | 
COc1cc2c(cc1Cc1cccc(Cl)c1F)c(=O)c(C(=O)O)cn2[C@H](CO)C(C)C | 0.0142 |  |  | > 50 |  |  | 
CC(=O)N1CCN(c2ccc3c(=O)c(C(=O)/C=C(\O)C(=O)O)cn(Cc4ccc(F)cc4)c3c2)CC1 |  |  |  | > 50 |  |  | 
CCOC(=O)/C(O)=C/C(=O)c1cn(Cc2ccc(F)cc2)c2cc(N3CCN(C)CC3)ccc2c1=O |  |  |  | > 50 |  |  | 
CCOC(=O)/C(O)=C/C(=O)c1cn(Cc2ccc(F)cc2)c2cc(N3CCN(CCCCl)CC3)ccc2c1=O | 13.2 | 102 | 1.3 | > 50 | > 3.7 |  | 
O=C(O)/C(O)=C/C(=O)c1cn(Cc2ccc(F)cc2)c2cc(N3CCOCC3)ccc2c1=O | 26.3 | 13 | 0.08 | > 50 | > 1.9 | 6.8 | inactive
O=C(O)/C(O)=C/C(=O)c1cn(Cc2ccc(F)cc2)c2cc(N3CCNCC3)ccc2c1=O | > 50 |  |  |  |  |  | 
CCN1CCN(c2ccc3c(=O)c(C(=O)/C=C(\O)C(=O)O)cn(Cc4ccc(F)cc4)c3c2)CC1 | > 50 | 23 | 0.21 |  |  |  | 
O=C(O)/C(O)=C/C(=O)c1cn(Cc2ccc(F)cc2)c2cc(N3CCN(CCCCl)CC3)ccc2c1=O | > 50 | 4.6 | 0.05 |  |  | 5.7 | inactive
CCOC(=O)/C(O)=C/C(=O)c1cn(Cc2ccc(F)cc2)c2cc(N(C)C)ccc2c1=O | > 50 | 41 | 2.9 |  |  |  | 
CN1CCN(c2ccc3c(=O)c(C(=O)/C=C(\O)C(=O)O)cn(Cc4ccc(F)cc4)c3c2)CC1 | > 50 | 8.5 | 0.1 |  |  |  | 
O=C(O)/C(O)=C/C(=O)c1cn(Cc2ccc(F)cc2)c2cc(N3CCCC3)ccc2c1=O |  |  |  | > 50 |  | 5.1 | inactive
